Values of other authors in patent US6956029B1, “Solid formulation of glucosamine sulphate” (SCA Lohnherstellungs AG, priority 1999, dated 2005).

What was measured:
[1] = over 30 days at 75% rH/20° C.
[2] = first acid dissociation constant

pKa1 [2] | SMILES | stability on storage [1]
– | N[C@H]1C(O)O[C@H](CO)[C@@H](O)[C@@H]1O.O=S(=O)([O-])O.[Cl-].[K+].[K+] (stereo partly drawn) [mixed salt with potassium chloride, D-glucosamine sulphate di-potassium chloride] | essentially stable
3.1 | O=C(O)CC(O)(CC(=O)O)C(=O)O [citric acid] | –
4.1 | O=C1O[C@H]([C@@H](O)CO)C(O)=C1O [ascorbic acid] | –
